Patent publication US20120252729A1, “PTH-CONTAINING THERAPEUTIC/PROPHYLACTIC AGENT FOR OSTEOPOROSIS, CHARACTERIZED IN THAT PTH IS ADMINISTERED ONCE A WEEK IN A UNIT DOSE OF 100 TO 200 UNITS” (ASAHI KASEI PHARMA CORPORATION, priority 2009, published 2012)

How the values were obtained:
[1] = test system: high-risk patients diagnosed with primary osteoporosis; experiment: Working Example 2: worsening vertebral fractures; type: in vivo, human; settings: 200 units weekly, FAS
Excerpt: The vertebral fractures in the present invention also include both new fractures and worsening fractures. […] New and worsening [fractures] can be classified by the grade increase pattern according to the criteria of Genant. Concretely speaking, a fracture is diagnosed as a new fracture when a change is found from grade 0 to grade 1, 2, or 3. It can be regarded as a worsening fracture when a change is found from grade 1 to grade 2 or 3 or from grade 2 to grade 3. The vertebral height was measured according to the method of Inoue et al. (Non-patent reference 35) and the method of Hayashi et al. (Non-patent Reference 36) to accurately assess the changes in grade.
The incidence of bone fractures was checked by frontal and lateral x-rays of the fourth thoracic to the fourth lumbar spine taken at the start and every 24 weeks thereafter.
The efficacy of the test drug on worsening bone fractures was studied.

[2] = test system: high-risk patients diagnosed with primary osteoporosis; experiment: Working Example 2: bone density of lumbar spine and femur by DXA; type: in vivo, human; settings: 200 units weekly; for Change in bone density (%), lumbar spine / Change in bone density (%), neck of femur / Change in bone density (%), proximal femur: patients taking glucocorticoid
Experimental: For the bone density of the femur, only the left side of the proximal part of the femur, rotated 20°, was measured at the start and every 24 weeks thereafter using dual-energy x-ray absorptiometry (DXA).

[3] = history of calcium L-aspartate, 24 W
[4] = history of calcium L-aspartate, 48 W
[5] = history of calcium L-aspartate, 72 W
[6] = history of calcium lactate, 24 W
[7] = history of calcium lactate, 48 W
[8] = history of calcium lactate, 72 W
[9] = history of raloxifene hydrochloride, 24 W
[10] = history of raloxifene hydrochloride, 48 W
[11] = history of raloxifene hydrochloride, 72 W
[12] = mild impairment (≧50-<80), after 24 W
[13] = mild impairment (≧50-<80), after 48 W
[14] = mild impairment (≧50-<80), final
[15] = moderate impairment (<50), after 24 W
[16] = moderate impairment (<50), after 48 W
[17] = moderate impairment (<50), after 72 W
[18] = moderate impairment (<50), final

teriparatide acetate
Difference between test drug group and control group after 72 W (%), incidence of worsening fractures [1]: 1.8%
Worsening fractures: No. with fractures [1]: 1
Incidence of worsening fractures (%) ([1]; after 24 W): 0.4%
Incidence of worsening fractures (%) ([1]; after 48 W): 0.4%
Incidence of worsening fractures (%) ([1]; after 72 W): 0.4%
Percentage change in bone density (%), lumbar spine ([2]; history of Alfacalcidol, 24 W): 3.11%
Percentage change in bone density (%), neck of femur ([2]; history of Alfacalcidol, 24 W): 1.64%
Percentage change in bone density (%), proximal femur ([2]; history of Alfacalcidol, 24 W): 2.77%
Percentage change in bone density (%), lumbar spine ([2]; history of Alfacalcidol, 48 W): 5.47%
Percentage change in bone density (%), neck of femur ([2]; history of Alfacalcidol, 48 W): 0.85%
Percentage change in bone density (%), proximal femur ([2]; history of Alfacalcidol, 48 W): 2.31%
Percentage change in bone density (%), lumbar spine ([2]; history of Alfacalcidol, 72 W): 6.47%
Percentage change in bone density (%), neck of femur ([2]; history of Alfacalcidol, 72 W): 2.19%
Percentage change in bone density (%), proximal femur ([2]; history of Alfacalcidol, 72 W): 2.31%
Percentage change in bone density (%), lumbar spine ([2]; history of calcitriol, 24 W): 3.50%
Percentage change in bone density (%), neck of femur ([2]; history of calcitriol, 24 W): −0.60%
Percentage change in bone density (%), proximal femur ([2]; history of calcitriol, 24 W): −1.40%
Percentage change in bone density (%), lumbar spine ([2]; history of calcitriol, 48 W): 4.40%
Percentage change in bone density (%), neck of femur ([2]; history of calcitriol, 48 W): −4.03%
Percentage change in bone density (%), proximal femur ([2]; history of calcitriol, 48 W): −1.05%
Percentage change in bone density (%), lumbar spine ([2]; history of calcitriol, 72 W): 6.38%
Percentage change in bone density (%), neck of femur ([2]; history of calcitriol, 72 W): −3.53%
Percentage change in bone density (%), proximal femur ([2]; history of calcitriol, 72 W): −0.04%
Percentage change in bone density (%), lumbar spine [2, 3]: 3.78%
Percentage change in bone density (%), neck of femur [2, 3]: 1.44%
Percentage change in bone density (%), proximal femur [2, 3]: 1.76%
Percentage change in bone density (%), lumbar spine [2, 4]: 6.16%
Percentage change in bone density (%), neck of femur [2, 4]: 1.88%
Percentage change in bone density (%), proximal femur [2, 4]: 2.28%
Percentage change in bone density (%), lumbar spine [2, 5]: 5.85%
Percentage change in bone density (%), neck of femur [2, 5]: 4.17%
Percentage change in bone density (%), proximal femur [2, 5]: 3.69%
Percentage change in bone density (%), lumbar spine [2, 6]: 1.96%
Percentage change in bone density (%), neck of femur [2, 6]: 0.30%
Percentage change in bone density (%), proximal femur [2, 6]: 1.78%
Percentage change in bone density (%), lumbar spine [2, 7]: 3.45%
Percentage change in bone density (%), neck of femur [2, 7]: −4.35%
Percentage change in bone density (%), proximal femur [2, 7]: −1.68%
Percentage change in bone density (%), lumbar spine [2, 8]: 4.93%
Percentage change in bone density (%), neck of femur [2, 8]: −2.53%
Percentage change in bone density (%), proximal femur [2, 8]: −3.20%
Percentage change in bone density (%), lumbar spine ([2]; history of elcatonin, 24 W): 3.95%
Percentage change in bone density (%), neck of femur ([2]; history of elcatonin, 24 W): 1.62%
Percentage change in bone density (%), proximal femur ([2]; history of elcatonin, 24 W): 3.86%
Percentage change in bone density (%), lumbar spine ([2]; history of elcatonin, 48 W): 3.59%
Percentage change in bone density (%), neck of femur ([2]; history of elcatonin, 48 W): 0.72%
Percentage change in bone density (%), proximal femur ([2]; history of elcatonin, 48 W): 3.44%
Percentage change in bone density (%), lumbar spine ([2]; history of elcatonin, 72 W): 5.36%
Percentage change in bone density (%), neck of femur ([2]; history of elcatonin, 72 W): 3.15%
Percentage change in bone density (%), proximal femur ([2]; history of elcatonin, 72 W): 4.41%
Percentage change in bone density (%), lumbar spine ([2]; history of menatetrenone, 24 W): 2.70%
Percentage change in bone density (%), neck of femur ([2]; history of menatetrenone, 24 W): 0.72%
Percentage change in bone density (%), proximal femur ([2]; history of menatetrenone, 24 W): 0.60%
Percentage change in bone density (%), lumbar spine ([2]; history of menatetrenone, 48 W): 3.04%
Percentage change in bone density (%), neck of femur ([2]; history of menatetrenone, 48 W): −3.18%
Percentage change in bone density (%), proximal femur ([2]; history of menatetrenone, 48 W): −0.56%
Percentage change in bone density (%), lumbar spine ([2]; history of menatetrenone, 72 W): 4.32%
Percentage change in bone density (%), neck of femur ([2]; history of menatetrenone, 72 W): −0.78%
Percentage change in bone density (%), proximal femur ([2]; history of menatetrenone, 72 W): −1.40%
Percentage change in bone density (%), lumbar spine [2, 9]: 1.77%
Percentage change in bone density (%), neck of femur [2, 9]: 0.21%
Percentage change in bone density (%), proximal femur [2, 9]: 2.44%
Percentage change in bone density (%), lumbar spine [2, 10]: 4.96%
Percentage change in bone density (%), neck of femur [2, 10]: 1.03%
Percentage change in bone density (%), proximal femur [2, 10]: 2.26%
Percentage change in bone density (%), lumbar spine [2, 11]: 4.59%
Percentage change in bone density (%), neck of femur [2, 11]: −0.51%
Percentage change in bone density (%), proximal femur [2, 11]: 3.03%
Change in lumbar vertebral density (%), mean [2, 12]: 3.9%
Change in lumbar vertebral density (%), median [2, 12]: 3.7%
Change in lumbar vertebral density (%), mean [2, 13]: 6.0%
Change in lumbar vertebral density (%), median [2, 13]: 5.7%
Change in lumbar vertebral density (%), mean ([2]; mild impairment (≧50-<80), after 72 W): 6.3%
Change in lumbar vertebral density (%), mean [2, 14]: 5.8%
Change in lumbar vertebral density (%), median [2, 14]: 5.4%
Change in lumbar vertebral density (%), mean [2, 15]: 3.7%
Change in lumbar vertebral density (%), median [2, 15]: 3.5%
Change in lumbar vertebral density (%), mean [2, 16]: 4.9%
Change in lumbar vertebral density (%), median [2, 16]: 3.8%
Change in lumbar vertebral density (%), mean [2, 17]: 6.1%
Change in lumbar vertebral density (%), median [2, 17]: 6.3%
Change in lumbar vertebral density (%), mean [2, 18]: 5.6%
Change in lumbar vertebral density (%), median [2, 18]: 4.9%
Change in lumbar vertebral density (%), mean ([2]; normal (≧80), after 24 W): 4.3%
Change in lumbar vertebral density (%), median ([2]; normal (≧80), after 24 W): 5.1%
Change in lumbar vertebral density (%), mean ([2]; normal (≧80), after 48 W): 5.4%
Change in lumbar vertebral density (%), median ([2]; normal (≧80), after 48 W): 5.6%
Change in lumbar vertebral density (%), mean ([2]; normal (≧80), after 72 W): 8.1%
Change in lumbar vertebral density (%), median ([2]; normal (≧80), final): 5.6%
Change in bone density (%), lumbar spine ([2]; 24 W): 3.50%
Change in bone density (%), neck of femur ([2]; 24 W): 2.53%
Change in bone density (%), proximal femur ([2]; 24 W): 2.46%
Change in bone density (%), lumbar spine ([2]; 48 W): 5.97%
Change in bone density (%), neck of femur ([2]; 48 W): 2.79%
Change in bone density (%), proximal femur ([2]; 48 W): 3.39%
Change in bone density (%), lumbar spine ([2]; 72 W): 6.82%
Change in bone density (%), neck of femur ([2]; 72 W): 2.44%
Change in bone density (%), proximal femur ([2]; 72 W): 3.06%
